Structures can show the parent of a compound that is named as a salt.
Experiments:
Assay type in all cases: cell-based; call rule not given here
[1] = target: T1, Voltage-gated inwardly rectifying potassium channel KCNH2 (Homo sapiens, UniProt Q12809, Y652A); test: Inhibition of human ERG Y652A mutant channel expressed in CHO cells by whole-cell patch clamp technique
[2] = target: T2, Voltage-gated inwardly rectifying potassium channel KCNH2 (Homo sapiens, UniProt Q12809); test: Inhibition of wild-type human ERG channel expressed in HEK293 cells assessed as blockade of potassium tail current by whole-cell patch clamp technique
[3] = target: T2, Voltage-gated inwardly rectifying potassium channel KCNH2; test: Inhibition of wild-type human ERG channel expressed in CHO cells by whole-cell patch clamp technique
[4] = target: T1, Voltage-gated inwardly rectifying potassium channel KCNH2; test: Inhibition of human ERG Y652A mutant channel expressed in HEK293 cells assessed as blockade of potassium tail current by whole-cell patch clamp technique
[5] = target: Voltage-gated inwardly rectifying potassium channel KCNH2 (Homo sapiens, UniProt Q12809, F656A); test: Inhibition of human ERG F656A mutant channel expressed in HEK293 cells assessed as blockade of potassium tail current by whole-cell patch clamp technique
HEK293 [6] = test: Ratio IC50 for human ERG F656A mutant channel expressed in HEK293 cells to IC50 for wild-type human ERG channel expressed in HEK293 cells
[7] = target: Voltage-gated inwardly rectifying potassium channel KCNH2 (Homo sapiens, UniProt Q12809, V659A); test: Inhibition of human ERG V659A mutant channel expressed in HEK293 cells assessed decrease in blockade of potassium tail current at 1 mM by whole-cell patch clamp technique; details: hek293, 1000 µM
HEK293 [8] = test: Ratio IC50 for human ERG Y652A mutant channel expressed in HEK293 cells to IC50 for wild-type human ERG channel expressed in HEK293 cells

Row | Compound | IC50 [1] [µM] | IC50 [2] [µM] | IC50 [3] [µM] | IC50 [4] [µM] | IC50 [5] [µM] | Ratio IC50 (HEK293 [6]) | inhibition (INH) [7] | Ratio IC50 (HEK293 [8])
1 | CCCCN1CCCC[C@H]1C(=O)Nc1c(C)cccc1C [LEVOBUPIVACAINE HYDROCHLORIDE] | 83 | 13 | 13 | 278 | 1010 |  |  | 
2 | CCCCN1CCCC[C@@H]1C(=O)Nc1c(C)cccc1C |  | 84 |  | 276 | 758 |  |  | 
3 | CCCCN1CCCCC1C(=O)Nc1c(C)cccc1C.Cl (racemic) [BUPIVACAINE HYDROCHLORIDE] | 95 | 32 | 22 | 265 | 866 | 30 | Active | 10

Source: ChEMBL document CHEMBL1817657, “Block of the hERG channel by bupivacaine: Electrophysiological and modeling insights towards stereochemical optimization” (Eur J Med Chem, 2011)
